In patent US20180133327A1, “Cell Penetrating Peptides and Complexes Comprising the Same” (Amal Therapeutics SA, priority 2015, published 2018):

How the values were obtained:
[1] = system: BMDC, mo-DCs, EL-4 or K562 cells; experiment: In vitro transduction with fluorescein-conjugated ZEBRA CPP truncation constructs (FACS); assay type: cell-based, human and mouse; details: for kinetic of transduction (entry into cells): fluorescein-conjugated constructs (ZxxOVACD8FAM), 30 minutes, 2 h or 4 h, acidic wash, FACS
Experimental: Transduction was assessed in cells with high phagocytosis capacity (dendritic cells of human and mice origin) and in cells with poor phagocytosis capacity (T cells from human, K562, or mouse, EL4, origin). Cells were incubated for 30 minutes, 2 h or 4 h with the fluorescein-conjugated constructs (Z13OVACD8FAM, Z14OVACD8FAM, Z15OVACD8FAM or Z18OVACD8FAM) then subjected to a 30s wash with an acidic buffer to remove membrane bound peptide before FACS analysis.
In order to more directly assess the transduction capacities of the selected ZEBRA CPP truncations Z13, Z14, Z15 and Z18 fluorescein-conjugated constructs (Z13OVACD8FAM, Z14OVACD8FAM, Z15OVACD8FAM and Z18OVACD8FAM) were synthesized. To this end, 5-(and-6)-carboxyfluorescein (mixed isomers; e.g. ThermoFisher Scientific catalogue no. C194) was added to each of Z13OVACD8 (SEQ ID NO: 29), Z14OVACD8 (SEQ ID NO: 30), Z15OVACD8 (SEQ ID NO: 31) and Z18OVACD8 (SEQ ID NO: 34).
These fluorescein-conjugated constructs (Z13OVACD8FAM, Z14OVACD8FAM, Z15OVACD8FAM and Z18OVACD8FAM) were tested for their ability to transduce different human and mouse cell types, in particular (i) cells with high phagocytosis capacity, namely dendritic cells (DCs) of human […], and (ii) cells with poor phagocytosis capacity, namely T cells from human, K562, or mouse, EL4, origin). The EL-4 thymoma cell line was maintained in complete RPMI 1640 medium. The K562 cell line was maintained in complete Iscove's modified Dulbecco's medium. BMDC, mo-DCs, EL-4 or K562 cells were incubated for 4 h at 37° C. with the fluorescein-conjugated constructs as described above (Z13OVACD8FAM, Z14OVACD8FAM, Z15OVACD8FAM or Z18OVACD8FAM). For removal of membrane bound peptide prior to cell transduction, a 30s wash with an acidic buffer (0.2 M Glycine, 0.15 M NaCl, pH 3) was performed. Cells were then analyzed by flow cytometry (FACS).

[2] = system: CFSE-labeled naïve OVA257-264-specific CD8+ T cells from OT-1 TCR transgenic mice; experiment: In vitro epitope presentation assay, MHC class I (BMDCs, proliferation of OT-1 T cells); assay type: cell-based, mouse; details: for in vitro proliferation of CD8 T cells (MHC class I presentation): BMDCs loaded 4 h with 300 nM ZxxOVACD8CD4, LPS o.n., 4 days
Experimental: BMDCs were loaded 4 h with 300nM of the different Zebra CPP truncation conjugated to both ovalbumin CD8 and CD4 epitopes (Z13OVACD8CD4, Z15OVACD8CD4 and Z18OVACD8CD4), then washed and incubated o.n. with 100 ng/ml of LPS. Efficient MHC class I or class II-restricted presentation was monitored after 4 days with CFSE-labeled naïve OVA257-264-specific CD8^+T cells from OT-1 T cell receptor (TCR) transgenic mice OT1 cells (A) or CFSE-labeled naïve OVA323-339-specific CD^+T cells from OT-2 T cell TCR transgenic mice respectively. As positive control, BMDCs were pulsed for 1 h with 5 uM peptide. Data from one experiment representative of three independent experiments.
BMDCs were loaded with 0.3 μM of each Zebra CPP truncation (Z13 to Z20) conjugated to OVACD8 epitope as described above for 4 hours at 37° C., washed 3 times, then matured overnight at 37° C. with 100 ng/ml LPS (from Salmonella abortus, equi S-form, Enzo Life Sciences). Antigen-loaded mature BMDC were then mixed at a ratio of 1:10 with OT-1 T cell receptor (TCR) transgenic mice splenocytes that had been stained with 10 μM 5-(and 6) Carboxyfluorescein diacetate succinimidyl ester (CFSE) (Life Technologies). After 4 days co-incubation of spleen cells and BMDCs, antigen-specific proliferation was assessed by flow cytometry, measuring CFSE dilution on CD8 T cells and live-gated cells. OT-1 mice express TCR specific for MHC class I restricted OVA257-264.
In order to assess the capacity of the ZEBRA CPP truncations to stimulate an integrated immune response including CD4 T cells, antigenic cargoes were produced that included both CD8 and CD4 T cell epitopes from OVA, and conjugated to Z13, Z15 and Z18. Accordingly, the following constructs (Z13OVACD8CD4, Z15OVACD8CD4 and Z18OVACD8CD4) were synthesized:
Processing and presentation of the CD8 and CD4 T cell epitopes were monitored, as described in Example 2 for CD8 T cell epitopes, by measuring the in vitro proliferation of naïve OT-1 T cells (CD8 T cell epitopes; FIG. 4A) and OVA323-339-specific CD4^+ T cells from OT-2 T cell TCR transgenic mice, respectively (FIG. 4B). Briefly, OT-2 T cell TCR transgenic mice express TCR specific for MHC class II restricted OVA323-339.

## KRYKNRVASRKSRAKFKQLLQHYREVAAAKSSENDRLRLLLK [Z13]
[1]
  kinetic of transduction (entry into cells): rapidly entering in the majority of the cells
[2]
  in vitro proliferation of CD8 T cells (MHC class I presentation): proliferation of both CD8 and CD4 T cells occurred

## KRYKNRVASRKSRAKFKQLLQHYREVAAAK [Z14]
[1]
  kinetic of transduction (entry into cells): rapidly entering in the majority of the cells

## KRYKNRVASRKSRAKFK (CPP Z15) [ZEBRA CPP truncation]
[1]
  kinetic of transduction (entry into cells): slower
[2]
  in vitro proliferation of CD8 T cells (MHC class I presentation): proliferation of both CD8 and CD4 T cells occurred

## REVAAAKSSENDRLRLLLK [Z18]
[1]
  kinetic of transduction (entry into cells): slower
[1]; fluorescein-conjugated constructs, compared to other ZEBRA CPP truncations
  transduction efficacy, all cell types: lower transduction efficacy
[2]
  in vitro proliferation of CD8 T cells (MHC class I presentation): proliferation of both CD8 and CD4 T cells occurred
[2]; ZxxOVACD8CD4, 300 nM, compared with Z13 or Z15
  efficiency of DC transduction and cargo delivery into the MHC class I antigen processing pathway: less efficient
